Measurements taken from patent US11111247B2, “Pyrazolopyrimidine compounds and uses thereof” (Incyte Corporation, priority 2018, dated 2021).
Read-outs that look alike come from different tables or passages of the source.

How the values were obtained:
FGFR2 (P) = FGFR2 (P) (Homo sapiens (Human), UniProt P21802); experiment: FGFR Enzymatic Assay, FGFR2 phosphorylated; settings: phosphorylated enzyme, ATP near or below Km
RT112 cells = experiment: Luminescent Viability Assay (LVA, FGFR3); assay type: cell-based; settings: Homo sapiens, RT-112, 72 h, 3 days, CellTiter-Glo
Description: RT112 cells were purchased from ATCC (Manassas, Va.) and maintained in RPMI, 10% FBS (Gibco/Life Technologies). To measure the effect of test compounds on the viability of cells, the cells were plated with RPMI 10% FBS (5×10^3 cells/well/in 50 μL) into black 96-well Greiner polystyrene in the presence or absence of 50 μl of a concentration range of test compounds. After 3 days, 100 μl of CellTiter-Glo Reagent (Promega) was added. Luminescence was read with a TopCount (PerkinElmer). IC50 determination was performed by fitting the curve of percent inhibition versus the log of the inhibitor concentration using the GraphPad Prism 5.0 software.

ALK2 (aa 147-end) = ALK2 (aa 147-end) (Homo sapiens (Human), UniProt Q04771); experiment: ALK2 HTRF Assay; assay type: biochemical
Description: The enzymatic assays were conducted in white 384-well polystyrene plates in a final volume of 8 μL. The inhibitors were serially diluted in DMSO and added to the plate wells prior to addition of the other reaction components. The assays were carried out at 25° C. in the assay buffer (50 mM HEPES, pH 7.1, 10% Glycerol, 0.01% Brij50, 10 mM MgCl2, 1 mM EGTA, 5 mM DTT, and 0.01% BSA), containing 50 nM LANCE Ultra ULight™-DNA Topoisomerase 2-alpha peptide (Perkin Elmer TRF0130), and 3 uM, 100 uM or 1 mM ATP (as specified). […] The reaction was read on a PHERAstar FS plate reader (BMG Labtech). IC50 determination was performed by fitting percent control activity versus the log of the inhibitor concentration using the IDBS XLFit and GraphPad Prism 5.0 software.

FGFR1 (UP) = FGFR1 (UP) (Homo sapiens (Human), UniProt P11362); experiment: FGFR Enzymatic Assay, FGFR1 un-phosphorylated
Description: (§1) The inhibitor potency of the exemplified compounds was determined in an enzyme discontinuous assay that measures peptide phosphorylation using FRET measurements to detect product formation. Inhibitors were serially diluted in DMSO and a volume of 0.2 μL was transferred to the wells of a 384-well plate. For the isoforms of FGFR (−1, −2, −3 wild-type and mutant isoforms, −4) including phosphorylated (P) and un-phosphorylated (UP) proteins, a 5 μL/well volume of enzyme diluted in assay buffer (50 mM HEPES, 10 mM MgCl2, 1 mM EGTA, 0.01% Tween-20, 5 mM DTT, pH 7.5) was added to the plate and pre-incubated with inhibitor for 5 to 15 minutes at ambient temperature. Appropriate controls (enzyme blank and enzyme with no inhibitor) were included on the plate. The reaction was initiated by the addition of a 5 μL/well volume containing both biotinylated [sequence] […] The plate was allowed to equilibrate for −10 minutes at ambient temperature before scanning on a PheraStar plate reader (BMG Labtech) instrument.
(§2) Either GraphPad prism or XLfit was used to analyze the data. The IC50 values were derived by fitting the data to a four parameter logistic equation producing a sigmoidal dose-response curve with a variable Hill coefficient. Prism equation: Y=Bottom+(Top−Bottom)/(1+10^((LogIC50−X)*Hill slope)); XLfit equation: Y=(A+((B−A)/(1+((X/C)^D)))) where X is the logarithm of inhibitor concentration and Y is the response.

FGFR3 (UP) = FGFR3 (UP) (Homo sapiens (Human), UniProt P22607); experiment: FGFR Enzymatic Assay, FGFR3 un-phosphorylated
Description: as §1, §2

ALK2 = ALK2 (Homo sapiens (Human), UniProt Q04771); experiment: ALK2 Cellular Assay (phospho SMAD1 HTRF, BMP-7 stimulated HeLa cells); assay type: cell-based; settings: HeLa cells, 200 ng/ml BMP-7, Phospho SMAD1 (S463/S465) HTRF; read-out: ALK2 Cellular Assay PSMAD
Description: HeLa cells were cultured in MEM media with 10% FBS. […] HeLa cells were plated in 96 well flat bottomed plate at 50,000 cells per well and incubated overnight. Next day, media was removed and 50 μL of fresh complete media was added. 5 μL compound was added to cells (3 μM final concentration at highest) and incubated for 60 min at 37° C. 200 ng/ml BMP-7 was added and incubated for 30 min at 37° C. After incubation, the media was removed, washed 2×PBS, and proceeded with HTRF kit according to Cisbio HTRF kit instructions for measuring the Phospho SMAD1 (S463/S465). Finally, both the donor and acceptor were added into 384 well plates and incubated at room temperature overnight and the HTRF signal was measured via Pherastar the next day.

[1] = read-out: ALK2 3 μM IC50, 3 uM ATP
[2] = read-out: FGFR1 (UP) IC50, un-phosphorylated enzyme, ATP near or below Km
[3] = read-out: FGFR3 (UP) IC50, un-phosphorylated enzyme, ATP near or below Km

Chain of FGFR2 (P) (P21802 22-821): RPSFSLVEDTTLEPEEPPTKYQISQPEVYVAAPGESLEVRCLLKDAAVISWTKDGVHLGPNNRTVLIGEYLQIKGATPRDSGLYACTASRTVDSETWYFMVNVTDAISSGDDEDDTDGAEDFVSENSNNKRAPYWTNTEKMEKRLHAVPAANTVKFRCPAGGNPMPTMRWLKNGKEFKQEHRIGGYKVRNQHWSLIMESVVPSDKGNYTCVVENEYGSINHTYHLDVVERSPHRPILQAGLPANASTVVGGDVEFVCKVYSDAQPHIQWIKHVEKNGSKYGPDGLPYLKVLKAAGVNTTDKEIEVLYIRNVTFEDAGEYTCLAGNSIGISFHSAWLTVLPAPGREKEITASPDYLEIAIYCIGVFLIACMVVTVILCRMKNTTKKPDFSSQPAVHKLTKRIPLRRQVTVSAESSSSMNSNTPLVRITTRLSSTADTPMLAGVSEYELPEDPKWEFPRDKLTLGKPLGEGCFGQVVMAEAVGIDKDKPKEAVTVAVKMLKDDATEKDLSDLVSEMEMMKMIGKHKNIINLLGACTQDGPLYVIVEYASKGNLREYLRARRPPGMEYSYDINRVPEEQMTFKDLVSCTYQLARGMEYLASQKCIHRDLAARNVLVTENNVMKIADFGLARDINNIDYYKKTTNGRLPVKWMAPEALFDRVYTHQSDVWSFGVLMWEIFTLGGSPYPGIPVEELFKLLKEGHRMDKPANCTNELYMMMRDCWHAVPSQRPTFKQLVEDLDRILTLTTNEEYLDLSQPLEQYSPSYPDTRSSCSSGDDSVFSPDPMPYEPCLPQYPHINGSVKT
Chain of FGFR1 (UP) (P11362 22-822): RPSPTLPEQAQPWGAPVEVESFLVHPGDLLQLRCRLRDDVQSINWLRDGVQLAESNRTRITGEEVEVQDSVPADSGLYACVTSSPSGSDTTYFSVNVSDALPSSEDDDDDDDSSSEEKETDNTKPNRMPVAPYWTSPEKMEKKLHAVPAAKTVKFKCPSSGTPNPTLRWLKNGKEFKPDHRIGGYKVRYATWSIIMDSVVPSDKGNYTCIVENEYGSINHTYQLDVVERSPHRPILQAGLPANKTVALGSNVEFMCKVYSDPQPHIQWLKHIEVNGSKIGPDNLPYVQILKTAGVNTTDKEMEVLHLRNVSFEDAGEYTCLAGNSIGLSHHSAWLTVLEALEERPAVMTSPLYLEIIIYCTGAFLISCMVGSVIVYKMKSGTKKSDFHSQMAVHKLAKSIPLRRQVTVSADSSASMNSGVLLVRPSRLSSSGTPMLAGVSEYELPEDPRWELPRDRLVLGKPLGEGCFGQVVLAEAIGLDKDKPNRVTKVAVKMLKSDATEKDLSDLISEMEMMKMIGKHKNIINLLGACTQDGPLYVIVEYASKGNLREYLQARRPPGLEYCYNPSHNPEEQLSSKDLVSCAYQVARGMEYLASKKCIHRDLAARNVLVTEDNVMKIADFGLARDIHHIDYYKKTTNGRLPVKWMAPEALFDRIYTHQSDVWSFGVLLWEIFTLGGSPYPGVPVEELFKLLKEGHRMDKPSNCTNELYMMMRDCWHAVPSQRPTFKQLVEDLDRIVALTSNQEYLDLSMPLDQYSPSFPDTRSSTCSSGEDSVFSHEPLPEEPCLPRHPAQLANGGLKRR
Chain of ALK2 (aa 147-end) (Q04771 147-509): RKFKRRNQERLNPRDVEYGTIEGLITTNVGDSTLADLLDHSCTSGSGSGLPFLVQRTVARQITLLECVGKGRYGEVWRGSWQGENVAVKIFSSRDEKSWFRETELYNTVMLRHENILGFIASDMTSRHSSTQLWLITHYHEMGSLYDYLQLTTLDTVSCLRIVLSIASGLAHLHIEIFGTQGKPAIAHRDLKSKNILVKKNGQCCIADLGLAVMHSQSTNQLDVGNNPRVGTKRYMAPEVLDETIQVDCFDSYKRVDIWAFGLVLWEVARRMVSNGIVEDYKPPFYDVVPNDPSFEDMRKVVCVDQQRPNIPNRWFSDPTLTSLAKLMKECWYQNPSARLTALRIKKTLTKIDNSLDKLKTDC
Chain of FGFR3 (UP) (P22607 23-806): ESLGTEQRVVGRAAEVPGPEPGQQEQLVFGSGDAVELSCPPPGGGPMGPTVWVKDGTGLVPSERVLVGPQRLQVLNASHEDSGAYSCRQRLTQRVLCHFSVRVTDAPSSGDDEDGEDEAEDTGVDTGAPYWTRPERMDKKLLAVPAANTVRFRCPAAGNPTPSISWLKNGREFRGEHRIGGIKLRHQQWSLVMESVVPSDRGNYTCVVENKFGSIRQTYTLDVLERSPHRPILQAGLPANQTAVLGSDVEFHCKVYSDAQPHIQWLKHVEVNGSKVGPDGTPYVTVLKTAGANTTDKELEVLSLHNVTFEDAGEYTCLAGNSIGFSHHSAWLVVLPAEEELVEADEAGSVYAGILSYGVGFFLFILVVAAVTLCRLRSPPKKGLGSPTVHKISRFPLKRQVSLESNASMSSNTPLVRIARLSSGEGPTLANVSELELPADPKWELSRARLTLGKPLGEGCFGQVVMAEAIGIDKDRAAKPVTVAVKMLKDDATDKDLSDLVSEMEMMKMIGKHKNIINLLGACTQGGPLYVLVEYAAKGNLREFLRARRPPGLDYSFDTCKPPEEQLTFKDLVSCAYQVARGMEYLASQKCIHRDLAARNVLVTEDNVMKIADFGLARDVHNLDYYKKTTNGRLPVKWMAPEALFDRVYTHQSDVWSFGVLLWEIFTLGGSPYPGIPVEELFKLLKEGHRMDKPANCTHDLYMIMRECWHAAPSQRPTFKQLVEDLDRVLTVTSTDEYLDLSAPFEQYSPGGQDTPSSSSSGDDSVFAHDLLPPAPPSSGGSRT
Chain of ALK2 (Q04771 21-509): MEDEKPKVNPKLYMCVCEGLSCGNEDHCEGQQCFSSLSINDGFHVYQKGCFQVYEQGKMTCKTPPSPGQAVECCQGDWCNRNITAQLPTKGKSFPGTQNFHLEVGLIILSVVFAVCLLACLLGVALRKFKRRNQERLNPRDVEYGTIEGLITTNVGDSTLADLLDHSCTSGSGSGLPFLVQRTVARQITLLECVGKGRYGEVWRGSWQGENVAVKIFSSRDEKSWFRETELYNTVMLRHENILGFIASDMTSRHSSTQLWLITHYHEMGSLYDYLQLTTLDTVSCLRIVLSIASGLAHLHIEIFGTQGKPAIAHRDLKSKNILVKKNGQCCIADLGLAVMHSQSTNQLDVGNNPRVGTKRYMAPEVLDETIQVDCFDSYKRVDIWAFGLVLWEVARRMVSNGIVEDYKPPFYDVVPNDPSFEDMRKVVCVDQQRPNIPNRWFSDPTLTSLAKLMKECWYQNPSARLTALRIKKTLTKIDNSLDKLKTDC

Compound	IC50 (ALK2 (aa 147-end); ALK2 100 μM IC50, 100 uM ATP) [nM]	IC50 (ALK2 (aa 147-end); [1]) [nM]	IC50 (FGFR1 (UP)) [nM]	IC50 (FGFR2 (P); FGFR2 (P) IC50 (nM)) [nM]	IC50 (ALK2 (aa 147-end); ALK2 1 mM IC50, 1 mM ATP) [nM]	IC50 (ALK2) [nM]	IC50 (FGFR3 (UP)) [nM]	IC50 (ALK2 (aa 147-end); read-out: ALK2 100 μM IC50, 100 uM ATP) [nM]	IC50 (FGFR2 (P); read-out: FGFR2 (P) IC50) [nM]	IC50 (RT112 cells) [nM]	IC50 (FGFR1 (UP); [2]) [nM]	IC50 (FGFR3 (UP); [3]) [nM]	IC50 (ALK2 (aa 147-end); ALK2 3 μM IC50, 3 uM ATP) [nM]
CN1CCN(c2ccc(-c3n[nH]c4cnc(N5C6CCC5C(=O)N(C)C6)nc34)cn2)CC1 (stereo not shown) [Example 60, 3-Methyl-8-(3-(6-(4-methylpiperazin-1-yl)pyridin-3-yl)-1H-pyrazolo[4,3-d]pyrimidin-5-yl)-3,8-diazabicyclo[3.2.1]octan-2-one]	500 to 2000	< 100	–	–	–	–	–	–	< 100	100 to 500	< 100	< 100	–
CN(C)C(=O)N1CCC(n2cc(-c3n[nH]c4cnc(N5C6CCC5C(=O)N(C)C6)nc34)cn2)CC1 (stereo not shown) [Example 56, N,N-Dimethyl-4-(4-(5-(3-methyl-2-oxo-3,8-diazabicyclo[3.2.1]octan-8-yl)-1H-pyrazolo[4,3-d]pyrimidin-3-yl)-1H-pyrazol-1-yl)piperidine-1-carboxamide]	–	–	100 to 500	–	–	–	–	–	< 100	500 to 2000	–	< 100	–
Cc1cc(C#N)ccc1-n1cc(-c2n[nH]c3cnc(N4C5CCC4C(=O)N(C)C5)nc23)cn1 (stereo not shown) [Example 77, 3-Methyl-4-(4-(5-(3-methyl-2-oxo-3,8-diazabicyclo[3.2.1]octan-8-yl)-1H-pyrazolo[4,3-d]pyrimidin-3-yl)-1H-pyrazol-1-yl)benzonitrile]	–	–	500 to 2000	100 to 500	–	–	–	–	–	500 to 2000	–	< 100	–
CC(C)C(=O)N1CCC(n2cc(-c3n[nH]c4cnc(N5C6CCC5C(=O)N(C)C6)nc34)cn2)CC1 (stereo not shown) [Example 57, 8-(3-(1-(1-Isobutyrylpiperidin-4-yl)-1H-pyrazol-4-yl)-1H-pyrazolo[4,3-d]pyrimidin-5-yl)-3-methyl-3,8-diazabicyclo[3.2.1]octan-2-one]	500 to 2000	–	100 to 500	–	–	–	–	–	< 100	500 to 2000	–	< 100	500 to 2000
CN1CC2CCC(C1=O)N2c1ncc2[nH]nc(-c3cnn(-c4cncc(C#N)c4)c3)c2n1 (stereo not shown) [Example 73, 5-(4-(5-(3-Methyl-2-oxo-3,8-diazabicyclo[3.2.1]octan-8-yl)-1H-pyrazolo[4,3-d]pyrimidin-3-yl)-1H-pyrazol-1-yl)nicotinonitrile]	–	–	100 to 500	–	–	–	–	–	< 100	500 to 2000	–	< 100	–
CN1CC2CCC(C1=O)N2c1ncc2[nH]nc(-c3cnn(-c4ccc(C#N)c(F)c4)c3)c2n1 (stereo not shown) [Example 78, 2-Fluoro-4-(4-(5-(3-methyl-2-oxo-3,8-diazabicyclo[3.2.1]octan-8-yl)-1H-pyrazolo[4,3-d]pyrimidin-3-yl)-1H-pyrazol-1-yl)benzonitrile]	–	–	100 to 500	–	–	–	–	–	< 100	100 to 500	–	< 100	–
CN1CC2CCC(C1=O)N2c1ncc2[nH]nc(-c3cnn(-c4ccc5nccn5c4)c3)c2n1 (stereo not shown) [Example 75, 8-(3-(1-(Imidazo[1,2-a]pyridin-6-yl)-1H-pyrazol-4-yl)-1H-pyrazolo[4,3-d]pyrimidin-5-yl)-3-methyl-3,8-diazabicyclo[3.2.1]octan-2-one]	500 to 2000	–	–	–	–	–	–	–	< 100	500 to 2000	< 100	< 100	500 to 2000
CN1CC2CCC(C1=O)N2c1ncc2[nH]nc(-c3cnn(-c4ccc(C#N)nc4)c3)c2n1 (stereo not shown) [Example 74, 5-(4-(5-(3-Methyl-2-oxo-3,8-diazabicyclo[3.2.1]octan-8-yl)-1H-pyrazolo[4,3-d]pyrimidin-3-yl)-1H-pyrazol-1-yl)picolinonitrile]	–	–	–	–	–	–	–	–	< 100	100 to 500	< 100	< 100	–
CC(C)NC(=O)N1C[C@@H](C)N(c2ncc3[nH]nc(-c4ccc(N5CCN[C@H](C)C5)nc4)c3n2)[C@@H](C)C1 [Example 7, (3R,5S)—N-isopropyl-3,5-dimethyl-4-(3-(6-((R)-3-methylpiperazin-1-yl)pyridin-3-yl)-1H-pyrazolo[4,3-d]pyrimidin-5-yl)piperazine-1-carboxamide]	100 to 500	< 100	500 to 2000	500 to 2000	100 to 500	100 to 500	500 to 2000	–	–	–	–	–	–
C[C@@H]1CN(c2ccc(-c3n[nH]c4cnc(N5[C@H](C)COC[C@@H]5C)nc34)cn2)CCN1 [Example 2, (3R,5S)-3,5-Dimethyl-4-(3-(6-((R)-3-methylpiperazin-1-yl)pyridin-3-yl)-1H-pyrazolo[4,3-d]pyrimidin-5-yl)morpholine]	100 to 500	< 100	100 to 500	100 to 500	500 to 2000	100 to 500	–	–	–	–	–	< 100	–
CN1CC2CCC(C1=O)N2c1ncc2[nH]nc(-c3cnn(-c4cccnc4)c3)c2n1 (stereo not shown) [Example 69, 3-Methyl-8-(3-(1-(pyridin-3-yl)-1H-pyrazol-4-yl)-1H-pyrazolo[4,3-d]pyrimidin-5-yl)-3,8-diazabicyclo[3.2.1]octan-2-one]	–	–	–	–	–	–	–	–	< 100	100 to 500	< 100	< 100	–

Now from value to compound, other results behind:

IC50 (ALK2 (aa 147-end); ALK2 100 μM IC50, 100 uM ATP) [nM]	IC50 (ALK2 (aa 147-end); [1]) [nM]	IC50 (FGFR1 (UP)) [nM]	IC50 (FGFR2 (P); FGFR2 (P) IC50 (nM)) [nM]	IC50 (ALK2 (aa 147-end); ALK2 1 mM IC50, 1 mM ATP) [nM]	IC50 (ALK2) [nM]	IC50 (FGFR3 (UP)) [nM]	IC50 (ALK2 (aa 147-end); read-out: ALK2 100 μM IC50, 100 uM ATP) [nM]	Compound	IC50 (FGFR2 (P); read-out: FGFR2 (P) IC50) [nM]	IC50 (RT112 cells) [nM]	IC50 (FGFR1 (UP); [2]) [nM]	IC50 (FGFR3 (UP); [3]) [nM]	IC50 (ALK2 (aa 147-end); ALK2 3 μM IC50, 3 uM ATP) [nM]
–	–	100 to 500	–	–	–	–	–	CC1C(=O)N(CC(F)F)CCN1c1ncc2[nH]nc(-c3cnn(C)c3)c2n1 (stereo not shown) [Example 46, 1-(2,2-Difluoroethyl)-3-methyl-4-(3-(1-methyl-1H-pyrazol-4-yl)-1H-pyrazolo[4,3-d]pyrimidin-5-yl)piperazin-2-one]	< 100	100 to 500	–	< 100	–
500 to 2000	–	100 to 500	100 to 500	–	–	–	–	Cn1cc(-c2n[nH]c3cnc(N4CCn5cnc(C(F)(F)F)c5C4)nc23)cn1 [Example 41, 3-(1-Methyl-1H-pyrazol-4-yl)-5-(1-(trifluoromethyl)-5,6-dihydroimidazo[1,5-a]pyrazin-7(8H)-yl)-1H-pyrazolo[4,3-d]pyrimidine]	–	100 to 500	–	< 100	500 to 2000
500 to 2000	–	500 to 2000	100 to 500	–	–	–	–	Cn1cc(-c2n[nH]c3cnc(N4CCc5ncccc5C4)nc23)cn1 [Example 40, 6-(3-(1-Methyl-1H-pyrazol-4-yl)-1H-pyrazolo[4,3-d]pyrimidin-5-yl)-5,6,7,8-tetrahydro-1,6-naphthyridine]	–	500 to 2000	–	< 100	500 to 2000
–	–	100 to 500	–	–	–	–	–	CCC1C(=O)N(C)CCN1c1ncc2[nH]nc(-c3cnn(C)c3)c2n1 (stereo not shown) [Example 39, 3-Ethyl-1-methyl-4-(3-(1-methyl-1H-pyrazol-4-yl)-1H-pyrazolo[4,3-d]pyrimidin-5-yl)piperazin-2-one]	< 100	100 to 500	–	< 100	–
–	–	500 to 2000	100 to 500	–	–	–	–	Cn1cc(-c2n[nH]c3cnc(N4CCc5ncsc5C4)nc23)cn1 [Example 42, 5-(3-(1-Methyl-1H-pyrazol-4-yl)-1H-pyrazolo[4,3-d]pyrimidin-5-yl)-4,5,6,7-tetrahydrothiazolo[5,4-c]pyridine]	–	100 to 500	–	< 100	–
–	–	500 to 2000	100 to 500	–	–	–	–	CC(C)N1CCN(c2ncc3[nH]nc(-c4cnn(C)c4)c3n2)C(C)C1=O (stereo not shown) [Example 47, 1-Isopropyl-3-methyl-4-(3-(1-methyl-1H-pyrazol-4-yl)-1H-pyrazolo[4,3-d]pyrimidin-5-yl)piperazin-2-one]	–	500 to 2000	–	< 100	–
–	< 100	500 to 2000	100 to 500	100 to 500	100 to 500	100 to 500	< 100	Cc1cnc2n1CCN(c1ncc3[nH]nc(-c4ccc(N5CCN[C@H](C)C5)nc4)c3n1)C2 [Example 19, (R)-5-(3-Methyl-5,6-dihydroimidazo[1,2-a]pyrazin-7(8H)-yl)-3-(6-(3-methylpiperazin-1-yl)pyridin-3-yl)-1H-pyrazolo[4,3-d]pyrimidine]	–	–	–	–	–
